Experimental data: paper PMC9186412, “Rational Framework for the Design of Trp- and Arg-Rich Peptide Antibiotics Against Multidrug-Resistant Bacteria” (Frontiers in Microbiology, 2022)
≈ marks a conversion by molar mass, not a printed value. Where two headings read alike, the source gives them in different places.

Assays:
A. baumannii = assay: microbe, parasite or virus in culture; assay type: cell-based, Acinetobacter baumannii; conditions: Acinetobacter baumannii, 18 h, MHB2, 18 h, 37°C
Outline: (§1)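 Clinical isolates in log phase were exposed to peptides in cation-adjusted MHB for 18 h at 37 °C, with growth followed hourly at A570 to give the MIC by a modified CLSI method. For MBC, bacteria were treated 3 h in 15% FBS/25% MHB/60% PBS and then plated; MBC was the concentration giving complete killing.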

E. coli = assay: microbe, parasite or virus in culture; assay type: cell-based, Escherichia coli; conditions: Escherichia coli, 18 h, MHB2, 18 h, 37°C
Outline: as §1

Enterobacter spp = assay: microbe, parasite or virus in culture; assay type: cell-based, Enterobacter spp (aerogenes, cloacae); conditions: Enterobacter, 18 h, UPMC, MHB2, 18 h, 37°C
Protocol: (§2) Bacterial clinical isolates, used for initial screening and in previous studies ([Deslouches et al., 2013]; [Lin et al., 2018]), were anonymously provided by the clinical microbiology laboratory of the University of Pittsburgh medical Center. The panel used for secondary screening was from [CDC (2013)] (Supplementary Table 3), with resistance profiles data. Bacteria are stored in lock-secured –80°C freezer and typically retrieved by obtaining single colonies on agar plates prior for subsequent liquid broth cultures. Suspensions of test bacteria were prepared from log phase of growth by diluting overnight cultures at 1:100 with fresh cation-adjusted MHB (MHB2, Millipore Sigma, United States) and incubating for additional 3–4 h. Bacteria were spun at 3,000 × g for 10 min and the pellet resuspended in test condition media (Millipore Sigma, United States) to determine bacterial turbidity using a Den-1B densitometer (Grant Instruments, United States) at 0.5 McFarland (unit of bacterial density) corresponding to […].
(§3) To examine antibacterial activity, we used minor modifications of a standard growth inhibition assay endorsed by the Clinical and Laboratory Standards Institute (CLSI), as previously described ([Deslouches et al., 2013]). Bacteria were incubated with each of the indicated peptides in MHB2. The bacterial cells were kept in an incubator for 18 h at 37°C, which is linked to a robotic system that feeds a plate reader every hour with one of 8 × 96-well plates. This set-up allows the collection of growth kinetic data at A 570 (absorbance at 570 nm) to examine growth inhibition in real time (BioTek Instruments, United States). […] The assays are typically repeated a second time. If the MIC is different, a third experimental trial is performed to confirm the MIC. To assess bactericidal properties of the peptide, the assay was modified by using 15% fetal bovine serum (FBS, for a more physiologically relevant test condition) mixed with 25% MHB2 and 60% PBS. Bacterial cells (colony forming unit/mL or CFU/mL) were enumerated after incubating treated bacteria for 3 h and plating serially diluted samples on broth agar medium at 37°C overnight. Minimum bactericidal concentration (MBC) was determined as the peptide concentration at which complete bacterial killing was observed. […] Data were analyzed using GraphPad Prism software.

K. pneumoniae = assay: microbe, parasite or virus in culture; assay type: cell-based, Klebsiella pneumoniae; conditions: Klebsiella pneumoniae, 18 h, MHB2, 18 h, 37°C
Protocol: as §2, §3

P. aeruginosa = assay: microbe, parasite or virus in culture; assay type: cell-based, Pseudomonas aeruginosa; conditions: Pseudomonas aeruginosa, MHB2, 18 h, 37°C
Protocol: as §2, §3

[1] = system: P. aeruginosa strain PA239; assay: Bactericidal assay (MBC) in FBS-containing medium FMP; assay type: cell-based; conditions: within 3h of incubation
Protocol: Bacteria were incubated with each of the indicated peptides in MHB2. […] To assess bactericidal properties of the peptide, the assay was modified by using 15% fetal bovine serum (FBS, for a more physiologically relevant test condition) mixed with 25% MHB2 and 60% PBS. […] Data were analyzed using GraphPad Prism software.

CDC AR isolates = system: CDC AR isolates; parameters: key: S (green), susceptible; I (blue), intermediate; R (red), resistant; conditions: data provided by the CDC, ref CDC, cited from earlier work
From the text: Supplement Table_3.XLSX, sheet "CDC AR isolates profiles" | column: G(-) strains

- MIC (A. baumannii; strain AB-A2, UPMC clinical strain, A570, confirmed by 2nd or 3rd trial): 0.5 µM (≈ 0.234 µg/mL)
- MIC (A. baumannii; strain AB-A3, UPMC): 16 µM (≈ 7.48 µg/mL)
- MIC (A. baumannii; strain AB-F8, UPMC): > 16 µM
- MIC (A. baumannii; strain AB-F9, UPMC): 2 µM (≈ 0.935 µg/mL)
- MIC (E. coli; strain YDC337, UPMC): > 16 µM
- MIC (E. coli; strain YDC748, UPMC): 16 µM (≈ 7.48 µg/mL)
- MIC (Enterobacter spp; strain EA518 (aerogenes)): > 16 µM
- MIC (Enterobacter spp; strain EA596 (aerogenes)): > 16 µM
- MIC (Enterobacter spp; strain EC470 (cloacae)): 4 µM (≈ 1.87 µg/mL)
- MIC (Enterobacter spp; strain EC560 (cloacae)): > 16 µM
- MIC (K. pneumoniae; strain KPA5 (colistin-resistant), UPMC): > 16 µM
- MIC (K. pneumoniae; strain KPB3, UPMC): > 16 µM
- MIC (P. aeruginosa; 18 h, strain PA01): 1 µM (≈ 0.468 µg/mL)
- MIC (P. aeruginosa; 18 h, strain PA97-5, UPMC): > 16 µM
- MIC (P. aeruginosa; 18 h, strain PA129-5, UPMC): 16 µM (≈ 7.48 µg/mL)
- MIC (P. aeruginosa; PA14, 18 h, strain PA14): 0.5 µM (≈ 0.234 µg/mL)
SMILES: NC[C@H]1O[C@H](O[C@H]2[C@H](O)[C@@H](O[C@H]3O[C@H](CO)[C@@H](O)[C@H](N)[C@H]3O)[C@H](N)C[C@@H]2N)[C@H](N)C[C@@H]1O [Tobramycin, reference compound]
- bacterial killing [1]: did not display any substantial bacterial killing
- Antibiotic susceptibility profile (CDC AR isolates; Acinetobacter baumannii AB273, CDC AR isolate): R
- Antibiotic susceptibility profile (CDC AR isolates; Acinetobacter baumannii AB274, CDC AR isolate): S
- Antibiotic susceptibility profile (CDC AR isolates; Acinetobacter baumannii AB275, CDC AR isolate): R
- Antibiotic susceptibility profile (CDC AR isolates; Acinetobacter baumannii AB276, CDC AR isolate): R
- Antibiotic susceptibility profile (CDC AR isolates; Enterobacter cloacae E62, CDC AR isolate): R
- Antibiotic susceptibility profile (CDC AR isolates; Escherichia coli EC541, CDC AR isolate): R
- Antibiotic susceptibility profile (CDC AR isolates; Escherichia coli EC543, CDC AR isolate): R
- Antibiotic susceptibility profile (CDC AR isolates; Escherichia coli EC544, CDC AR isolate): R
- Antibiotic susceptibility profile (CDC AR isolates; Escherichia coli EC549, CDC AR isolate): R
- Antibiotic susceptibility profile (CDC AR isolates; Klebsiella pneumoniae KP542, CDC AR isolate): R
- Antibiotic susceptibility profile (CDC AR isolates; Klebsiella pneumoniae KP548, CDC AR isolate): S
- Antibiotic susceptibility profile (CDC AR isolates; Klebsiella pneumoniae KP550, CDC AR isolate): R
- Antibiotic susceptibility profile (CDC AR isolates; Klebsiella pneumoniae KP552, CDC AR isolate): R
- Antibiotic susceptibility profile (CDC AR isolates; Pseudomonas aeruginosa PA229, CDC AR isolate): S
- Antibiotic susceptibility profile (CDC AR isolates; Pseudomonas aeruginosa PA230, CDC AR isolate): R
- Antibiotic susceptibility profile (CDC AR isolates; Pseudomonas aeruginosa PA231, CDC AR isolate): R
- Antibiotic susceptibility profile (CDC AR isolates; Pseudomonas aeruginosa PA232, CDC AR isolate): R
- Antibiotic susceptibility profile (CDC AR isolates; Pseudomonas aeruginosa PA239, CDC AR isolate): R
